Measured values from paper PMC5820647, “Simultaneous Quantification of Gallic Acid, Bergenin, Epicatechin, Epicatechin Gallate, Isoquercitrin, and Quercetin-3-Rhamnoside in Rat Plasma by LC-MS/MS Method and Its Application to Pharmacokinetics after Oral Administration of Ardisia japonica Extract” (Evidence-based Complementary and Alternative Medicine : eCAM, 2018).
Read-outs that look alike come from different tables or passages of the source.

Tests used:
[1] = type: physicochemical; details: for Free-throw 3 times Accuracy: 3 cycles freezing at about −20°C and thawing at room temperature; for 24 h stability Accuracy: autosampler, room temperature
Description: The standard stock solutions of gallic acid, bergenin, epicatechin, epicatechin gallate, isoquercitrin, and quercetin-3-rhamnoside were prepared by dissolving each separately in methanol to achieve a concentration of 1 mg mL^−1 for use as the stock solution. The three ISs including ferulic acid, puerarin, and warfarin were prepared using the same procedure as mentioned above with the concentration being 1 μg mL^−1. Calibration standard solutions were prepared by spiking the different concentrations of the standard mixture working solutions into plasma to achieve the concentration range of 2–500 ng mL^−1 for gallic acid; 2–500 ng mL^−1 for bergenin; 4–1000 ng mL^−1 for epicatechin; 2–500 ng mL^−1 for epicatechin gallate; 1–250 ng mL^−1 for isoquercitrin; and 0.4–100 ng mL^−1 for quercetin-3-rhamnoside. The QC samples were prepared by spiking 10 μL of the standard stock solutions into 100 μL of blank plasma to achieve LLOQ, low, medium and high concentrations of 2, 6, 20, and 200 ng mL^−1 for gallic acid; 2, 6, 20, and 200 ng mL^−1 for bergenin; 4, 12, 40, and 400 ng mL^−1 for epicatechin; 2, 6, 20, and 200 ng mL^−1 for epicatechin gallate; 1, 3, 10, and 100 ng mL^−1 for isoquercitrin; and 0.4, 1.2, 4, and 40 ng mL^−1 for quercetin-3-rhamnoside.
The stability for 6 analysis compounds including 24 h stability (keeping the sample in autosampler conditions of room temperature for 24 h), three freeze/thaw cycles (subjected to 3 cycles of freezing at about −20°C and thawing at room temperature), and a long-term stability (stored at about −80°C for 4 weeks) of analytes in plasma was performed by analyzing QC samples at four different concentrations.

[2] = Pharmacokinetic study in rats after oral administration of A. japonica extract (LC-MS/MS of plasma); type: in vivo; details: male, Sprague-Dawley; for Tmax: n = 10; for MRT: read-out: MRT(0–t24 h); for MRT inf: read-out: MRT(0–∞); for Cmax: read-out: peak plasma concentration (Cmax)
Description: The LC-MS/MS system consisted of an Agilent 1200 system coupled with a binary pump (G1312A), an autosampler (G13678), a vacuum degasser (G1322A), and an API 3200 triple quadrupole mass spectrometer with an ESI source. […] The flow rate was set at 300 μL min^−1 and the inject volume was 10 μL.
The analytes were determined in negative mode and quantified by multiple-reaction monitoring (MRM) mode. The source parameters were as follows: curtain gas, 25 psi; collision gas, 12 psi; ion spray voltage, −4500 V; temperature, 500°C; ion source gas 1, 45 psi; and ion source gas 2, 55 psi, respectively. Data acquisition was operated by Analyst 1.4.2 software (AB Sciex).
100 μL of plasma sample, 10 μL of the IS solutions, and 10 μL of 30% formic acid were added to the tube. Samples were vortex-mixed for 1 min, and 400 μL of acetonitrile was then used in precipitating the protein, after which they were centrifuged for 10 min at 14,000 rpm. The supernatant was transferred into another centrifuge tube and evaporated using nitrogen gas to dryness. The dried residue was reconstituted using 100 μL of methanol. The sample was further shaken and ultrasonicated for 2 min to ensure that it was well dissolved. It was subsequently centrifuged at 14,000 rpm for 10 min, and 10 μL aliquot of the solution was injected into the LC-MS/MS system for analysis.
Ten male Sprague-Dawley rats (270–280 g) were kept at the animal center of Tianjin University of Traditional Chinese Medicine (Tianjin, China) under environmentally controlled conditions. […] According to the clinical dose used in human, the rat dose of A. japonicae extracts used was 0.93 g kg^−1. […] After blood sample collection into the heparinized 1.5 mL polythene tubes and centrifugation at 6000 rpm for 10 min, the plasma was transferred into clean tubes and stored in a freezer at −20°C until analysis. The pharmacokinetic parameters were determined using pharmacokinetics program (DAS1.0 Medical College of Wannan, China) and performing a one compartmental analysis.

[3] = rat plasma, LLOQ QC concentration, n = 6
[4] = rat plasma, high QC concentration, n = 6
[5] = rat plasma, low QC concentration, n = 6
[6] = rat plasma, medium QC concentration, n = 6
[7] = stored at about −80°C for 4 weeks, rat plasma, LLOQ QC concentration, n = 6
[8] = stored at about −80°C for 4 weeks, rat plasma, high QC concentration, n = 6
[9] = stored at about −80°C for 4 weeks, rat plasma, medium QC concentration, n = 6
[10] = in vivo, rat plasma, oral A. japonica extract 0.93 g kg^−1, one compartment model
[11] = rat, plasma, po, 0.93 g/kg, oral A. japonica extract 0.93 g kg^−1, one compartment model, read-out: AUC(0–24 h)
[12] = rat, plasma, po, 0.93 g/kg, oral A. japonica extract 0.93 g kg^−1, read-out: area under the curve (AUC0–24 h)
[13] = rat plasma, oral A. japonica extract 0.93 g kg^−1, one compartment model
[14] = rat plasma, oral A. japonica extract 0.93 g kg^−1

With `O=c1c(O[C@@H]2O[C@H](CO)[C@@H](O)[C@H](O)[C@H]2O)c(-c2ccc(O)c(O)c2)oc2cc(O)cc(O)c12` [Isoquercitrin, isoquercitrin] the “Free-throw 3 times Accuracy” value [1, 3] was 105%, the “Free-throw 3 times Accuracy” value [1, 4] was 91.0% and the “Free-throw 3 times Accuracy” value [1, 5] was 103%. For the same molecule, the “Free-throw 3 times Accuracy” value [1, 6] was 96.9%.

With `Oc1cc(O)c2c(c1)O[C@H](c1ccc(O)c(O)c1)[C@H](O)C2` [Epicatechin, epicatechin] the “Free-throw 3 times Accuracy” value [1, 3] was 105%, the “Free-throw 3 times Accuracy” value [1, 4] was 99.4% and the “Free-throw 3 times Accuracy” value [1, 5] was 111%. For the same molecule, the “Free-throw 3 times Accuracy” value [1, 6] was 111%.

With `C[C@@H]1O[C@@H](Oc2c(-c3ccc(O)c(O)c3)oc3cc(O)cc(O)c3c2=O)[C@H](O)[C@H](O)[C@H]1O` [Quercetin-3-rhamnoside, quercetin-3-rhamnoside] the “Free-throw 3 times Accuracy” value [1, 3] was 115%, the “Free-throw 3 times Accuracy” value [1, 4] was 85.0% and the “Free-throw 3 times Accuracy” value [1, 5] was 90.4%. The “Free-throw 3 times Accuracy” value [1, 6] was 93.3%, the “24 h stability Accuracy” value ([1]; LLOQ QC concentration, n = 6) was 93.7% and the “24 h stability Accuracy” value ([1]; high QC concentration, n = 6) was 87.3%. For the same molecule, the “24 h stability Accuracy” value ([1]; low QC concentration, n = 6) was 96.3%, the “24 h stability Accuracy” value ([1]; medium QC concentration, n = 6) was 93.3% and the “Long stability (1 month) Accuracy” value [1, 7] was 114%. For the same molecule, the “Long stability (1 month) Accuracy” value [1, 8] was 85.0%, the “Long stability (1 month) Accuracy” value ([1]; stored at about −80°C for 4 weeks, rat plasma, low QC concentration, n = 6) was 92.2% and the “Long stability (1 month) Accuracy” value [1, 9] was 90.6%. It also gave an AUC(0-inf) [2, 10] of 6.95 ± 20.7 ng·h/mL, a half-life [2, 10] of 155 ± 168 min and a Tmax [2, 10] of 30 ± 36 min. For the same molecule, the MRT [2, 10] was 5.08 ± 6.36 h, the MRT inf [2, 10] was 7.09 ± 19.6 h and the AUC(0-t) ([2]; in vivo, rat plasma, oral A. japonica extract 0.93 g kg^−1, read-out: area under the curve (AUC0–24 h)) was 6.44 ± 12 ng·h/mL. The Cmax ([2]; in vivo, rat plasma, oral A. japonica extract 0.93 g kg^−1) was 7.08 ± 8.28 ng/mL.

For `COc1c(O)cc2c(c1O)[C@@H]1O[C@H](CO)[C@@H](O)[C@H](O)[C@H]1OC2=O` [Bergeninum, bergenin], the “Free-throw 3 times Accuracy” value [1, 3] was 106%, the “Free-throw 3 times Accuracy” value [1, 4] was 87.3% and the “Free-throw 3 times Accuracy” value [1, 5] was 104%. For the same molecule, the “Free-throw 3 times Accuracy” value [1, 6] was 94.0%, the AUC(0-t) [2, 11] was 1740 ± 666 ng·h/mL and the AUC(0-t) [2, 12] was 1740 ± 666 ng·h/mL. For the same molecule, the AUC(0-inf) [2, 13] was 1840 ± 769 ng·h/mL, the half-life [2, 13] was 232 ± 97.2 min and the Tmax [2, 13] was 51.6 ± 31.2 min. The MRT [2, 13] was 6.04 ± 1.05 h, the MRT inf [2, 13] was 7.26 ± 2.17 h and the Cmax [2, 14] was 288 ± 107 ng/mL.

With `O=C(O)c1cc(O)c(O)c(O)c1` [Gallic acid, gallic acid] the “Free-throw 3 times Accuracy” value [1, 3] was 92.5%, the “Free-throw 3 times Accuracy” value [1, 4] was 101% and the “Free-throw 3 times Accuracy” value [1, 5] was 114%. The “Free-throw 3 times Accuracy” value [1, 6] was 94.0%, the “24 h stability Accuracy” value ([1]; LLOQ QC concentration, n = 6) was 116% and the “24 h stability Accuracy” value ([1]; high QC concentration, n = 6) was 103%. For the same molecule, the “24 h stability Accuracy” value ([1]; low QC concentration, n = 6) was 111%, the “24 h stability Accuracy” value ([1]; medium QC concentration, n = 6) was 85.8% and the “Long stability (1 month) Accuracy” value ([1]; rat, 4 weeks) was 101%. The “Long stability (1 month) Accuracy” value [1, 7] was 95.6%, the “Long stability (1 month) Accuracy” value [1, 8] was 92.7% and the “Long stability (1 month) Accuracy” value [1, 9] was 98.4%. The AUC(0-t) [2, 11] was 194 ± 44 ng·h/mL, the AUC(0-t) [2, 12] was 194 ± 44 ng·h/mL and the AUC(0-inf) [2, 13] was 200 ± 43.9 ng·h/mL. For the same molecule, the half-life [2, 13] was 193 ± 274 min, the Tmax [2, 13] was 84 ± 67.8 min and the MRT [2, 13] was 4.5 ± 1.15 h. It also gave an MRT inf [2, 13] of 5.33 ± 1.61 h and a Cmax [2, 14] of 35.5 ± 10.2 ng/mL.

For `O=C(O[C@@H]1Cc2c(O)cc(O)cc2O[C@@H]1c1ccc(O)c(O)c1)c1cc(O)c(O)c(O)c1` [Epicatechin gallate, epicatechin gallate], the “Free-throw 3 times Accuracy” value [1, 3] was 109%, the “Free-throw 3 times Accuracy” value [1, 4] was 88.0% and the “Free-throw 3 times Accuracy” value [1, 5] was 98.4%. The “Free-throw 3 times Accuracy” value [1, 6] was 91.4%.
